Data from ChEMBL document CHEMBL5678818, “Discovery of potent SOS1 inhibitors that block RAS activation via disruption of the RAS-SOS1 interaction” (Proc Natl Acad Sci U S A, 2019).

Assays:
[1] = target: Atypical kinase COQ8A, mitochondrial (Homo sapiens) (UniProt Q8NI60); test: Inhibition of ADCK3 (unknown origin) assessed as residual activity at 100 nM by KINOMEscan analysis relative to control
[2] = target: Cyclin-dependent kinase 3 (Homo sapiens) (UniProt Q00526); test: Inhibition of CDK3 (unknown origin) assessed as residual activity at 100 nM by KINOMEscan analysis relative to control
[3] = target: T1, Serine/threonine-protein kinase ICK (Homo sapiens) (UniProt Q9UPZ9); test: Inhibition of ICK (unknown origin) assessed as residual activity at 100 nM by KINOMEscan analysis relative to control
T1 sequence (whole entry): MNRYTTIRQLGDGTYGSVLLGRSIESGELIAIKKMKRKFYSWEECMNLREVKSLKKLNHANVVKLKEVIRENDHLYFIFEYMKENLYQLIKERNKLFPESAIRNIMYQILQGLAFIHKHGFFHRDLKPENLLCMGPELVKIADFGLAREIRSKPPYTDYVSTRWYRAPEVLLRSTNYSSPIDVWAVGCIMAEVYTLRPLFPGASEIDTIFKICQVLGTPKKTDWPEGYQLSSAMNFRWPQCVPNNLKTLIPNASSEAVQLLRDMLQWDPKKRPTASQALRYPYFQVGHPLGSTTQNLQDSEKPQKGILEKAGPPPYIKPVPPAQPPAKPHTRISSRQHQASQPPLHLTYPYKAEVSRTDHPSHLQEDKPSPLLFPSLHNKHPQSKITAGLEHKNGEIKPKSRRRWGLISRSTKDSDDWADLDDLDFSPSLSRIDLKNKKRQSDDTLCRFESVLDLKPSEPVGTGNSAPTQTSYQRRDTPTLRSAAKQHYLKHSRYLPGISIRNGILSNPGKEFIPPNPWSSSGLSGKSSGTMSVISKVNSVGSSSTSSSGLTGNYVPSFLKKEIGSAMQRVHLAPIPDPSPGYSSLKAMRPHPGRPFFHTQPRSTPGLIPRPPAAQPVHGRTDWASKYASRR

[4] = target: Mitogen-activated protein kinase kinase kinase kinase 4 (Homo sapiens) (UniProt O95819); test: Inhibition of MAP4K4 (unknown origin) assessed as residual activity at 100 nM by KINOMEscan analysis relative to control
[5] = target: Phosphatidylinositol 4-phosphate 3-kinase C2 domain-containing subunit beta (Homo sapiens) (UniProt O00750); test: Inhibition of PIK3C2B (unknown origin) assessed as residual activity at 100 nM by KINOMEscan analysis relative to control
[6] = target: Phosphatidylinositol 4,5-bisphosphate 3-kinase catalytic subunit gamma isoform (Homo sapiens) (UniProt P48736); test: Inhibition of PIK3CG (unknown origin) assessed as residual activity at 100 nM by KINOMEscan analysis relative to control
[7] = target: T2, Receptor-interacting serine/threonine-protein kinase 1 (Homo sapiens) (UniProt Q13546); test: Inhibition of RIPK1 (unknown origin) assessed as residual activity at 100 nM by KINOMEscan analysis relative to control
T2 sequence (whole entry): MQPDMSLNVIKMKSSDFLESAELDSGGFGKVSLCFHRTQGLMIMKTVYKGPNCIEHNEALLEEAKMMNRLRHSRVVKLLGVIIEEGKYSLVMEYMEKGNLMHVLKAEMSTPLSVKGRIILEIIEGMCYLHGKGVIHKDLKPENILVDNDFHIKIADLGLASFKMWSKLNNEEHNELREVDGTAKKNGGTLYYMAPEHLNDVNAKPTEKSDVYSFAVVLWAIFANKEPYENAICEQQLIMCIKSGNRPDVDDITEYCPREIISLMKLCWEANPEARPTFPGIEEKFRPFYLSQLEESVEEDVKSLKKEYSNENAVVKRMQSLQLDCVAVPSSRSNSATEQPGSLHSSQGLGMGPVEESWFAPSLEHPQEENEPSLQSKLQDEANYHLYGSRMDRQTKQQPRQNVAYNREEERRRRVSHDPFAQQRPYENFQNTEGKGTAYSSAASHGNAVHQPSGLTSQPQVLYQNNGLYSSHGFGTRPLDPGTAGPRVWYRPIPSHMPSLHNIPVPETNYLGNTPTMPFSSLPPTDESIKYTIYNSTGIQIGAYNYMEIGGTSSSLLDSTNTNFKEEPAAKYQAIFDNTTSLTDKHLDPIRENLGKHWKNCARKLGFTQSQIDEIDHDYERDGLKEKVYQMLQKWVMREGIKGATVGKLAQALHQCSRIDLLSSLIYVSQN

[8] = target: Ribosomal protein S6 kinase alpha-5 (Homo sapiens) (UniProt O75582); test: Inhibition of N-terminal RPS6KA5 kinetic domain 1 (unknown origin) assessed as residual activity at 100 nM by KINOMEscan analysis relative to control
[9] = target: T3, Serine/threonine-protein kinase Sgk1 (Homo sapiens) (UniProt O00141); test: Inhibition of SGK (unknown origin) assessed as residual activity at 100 nM by KINOMEscan analysis relative to control
T3 sequence (whole entry): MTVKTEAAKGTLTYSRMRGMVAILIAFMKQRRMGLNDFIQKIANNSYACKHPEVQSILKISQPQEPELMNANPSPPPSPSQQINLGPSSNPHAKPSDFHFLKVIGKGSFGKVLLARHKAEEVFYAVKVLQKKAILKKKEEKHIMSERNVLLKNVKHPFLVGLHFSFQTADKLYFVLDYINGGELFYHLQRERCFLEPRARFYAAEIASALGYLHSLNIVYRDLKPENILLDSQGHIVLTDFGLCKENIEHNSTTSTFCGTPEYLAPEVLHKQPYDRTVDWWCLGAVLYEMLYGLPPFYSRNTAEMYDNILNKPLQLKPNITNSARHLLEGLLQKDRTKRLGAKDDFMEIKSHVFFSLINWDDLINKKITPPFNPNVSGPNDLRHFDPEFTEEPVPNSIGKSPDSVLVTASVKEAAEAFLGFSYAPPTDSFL

Chain of Phosphatidylinositol 4,5-bisphosphate 3-kinase catalytic subunit gamma isoform (Homo sapiens) (P48736 whole entry, looked up, canonical isoform): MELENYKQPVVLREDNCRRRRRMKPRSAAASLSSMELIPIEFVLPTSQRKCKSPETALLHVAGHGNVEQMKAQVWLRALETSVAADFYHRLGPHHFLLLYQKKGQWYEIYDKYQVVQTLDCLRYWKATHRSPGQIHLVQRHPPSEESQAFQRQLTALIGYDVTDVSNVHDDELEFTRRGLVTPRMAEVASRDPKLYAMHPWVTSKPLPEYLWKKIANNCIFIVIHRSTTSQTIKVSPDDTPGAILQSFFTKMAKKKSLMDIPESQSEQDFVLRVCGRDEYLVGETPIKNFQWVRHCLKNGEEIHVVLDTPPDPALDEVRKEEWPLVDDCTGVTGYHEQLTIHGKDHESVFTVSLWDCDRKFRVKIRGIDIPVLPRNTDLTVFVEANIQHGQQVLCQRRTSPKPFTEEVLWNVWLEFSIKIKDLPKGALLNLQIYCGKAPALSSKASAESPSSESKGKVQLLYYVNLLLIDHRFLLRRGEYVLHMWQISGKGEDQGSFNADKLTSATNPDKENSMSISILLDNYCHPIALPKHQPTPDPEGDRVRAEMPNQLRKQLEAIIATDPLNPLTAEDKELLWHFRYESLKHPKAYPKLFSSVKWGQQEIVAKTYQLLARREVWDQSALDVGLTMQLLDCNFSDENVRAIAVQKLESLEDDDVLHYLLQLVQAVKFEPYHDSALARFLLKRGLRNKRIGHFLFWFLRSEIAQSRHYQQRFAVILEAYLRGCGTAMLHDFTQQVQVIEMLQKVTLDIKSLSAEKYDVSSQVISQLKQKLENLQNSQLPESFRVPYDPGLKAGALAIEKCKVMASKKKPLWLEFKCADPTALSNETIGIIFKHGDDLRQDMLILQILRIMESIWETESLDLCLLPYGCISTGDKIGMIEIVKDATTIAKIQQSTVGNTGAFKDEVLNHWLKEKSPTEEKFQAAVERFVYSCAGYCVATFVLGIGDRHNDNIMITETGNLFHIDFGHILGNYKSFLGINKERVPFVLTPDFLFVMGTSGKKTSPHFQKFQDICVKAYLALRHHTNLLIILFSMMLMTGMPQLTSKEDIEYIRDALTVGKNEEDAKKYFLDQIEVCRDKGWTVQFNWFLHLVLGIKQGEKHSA
Chain of Atypical kinase COQ8A, mitochondrial (Homo sapiens) (Q8NI60 163-647 limits assumed): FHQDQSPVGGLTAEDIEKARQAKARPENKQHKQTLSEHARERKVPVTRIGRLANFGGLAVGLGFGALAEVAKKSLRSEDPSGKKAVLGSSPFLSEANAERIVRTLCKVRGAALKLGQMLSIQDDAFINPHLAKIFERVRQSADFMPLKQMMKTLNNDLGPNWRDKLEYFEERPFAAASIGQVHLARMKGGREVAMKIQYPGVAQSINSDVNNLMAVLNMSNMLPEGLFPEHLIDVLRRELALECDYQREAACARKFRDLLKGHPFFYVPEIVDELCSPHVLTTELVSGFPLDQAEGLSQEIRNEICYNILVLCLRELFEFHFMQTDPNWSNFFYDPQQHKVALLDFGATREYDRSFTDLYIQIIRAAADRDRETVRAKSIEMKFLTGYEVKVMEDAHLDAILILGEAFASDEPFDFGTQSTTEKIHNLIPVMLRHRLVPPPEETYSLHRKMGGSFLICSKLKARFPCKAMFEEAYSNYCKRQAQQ
Chain of Phosphatidylinositol 4-phosphate 3-kinase C2 domain-containing subunit beta (Homo sapiens) (O00750 whole entry, the tested form may be a part, canonical isoform): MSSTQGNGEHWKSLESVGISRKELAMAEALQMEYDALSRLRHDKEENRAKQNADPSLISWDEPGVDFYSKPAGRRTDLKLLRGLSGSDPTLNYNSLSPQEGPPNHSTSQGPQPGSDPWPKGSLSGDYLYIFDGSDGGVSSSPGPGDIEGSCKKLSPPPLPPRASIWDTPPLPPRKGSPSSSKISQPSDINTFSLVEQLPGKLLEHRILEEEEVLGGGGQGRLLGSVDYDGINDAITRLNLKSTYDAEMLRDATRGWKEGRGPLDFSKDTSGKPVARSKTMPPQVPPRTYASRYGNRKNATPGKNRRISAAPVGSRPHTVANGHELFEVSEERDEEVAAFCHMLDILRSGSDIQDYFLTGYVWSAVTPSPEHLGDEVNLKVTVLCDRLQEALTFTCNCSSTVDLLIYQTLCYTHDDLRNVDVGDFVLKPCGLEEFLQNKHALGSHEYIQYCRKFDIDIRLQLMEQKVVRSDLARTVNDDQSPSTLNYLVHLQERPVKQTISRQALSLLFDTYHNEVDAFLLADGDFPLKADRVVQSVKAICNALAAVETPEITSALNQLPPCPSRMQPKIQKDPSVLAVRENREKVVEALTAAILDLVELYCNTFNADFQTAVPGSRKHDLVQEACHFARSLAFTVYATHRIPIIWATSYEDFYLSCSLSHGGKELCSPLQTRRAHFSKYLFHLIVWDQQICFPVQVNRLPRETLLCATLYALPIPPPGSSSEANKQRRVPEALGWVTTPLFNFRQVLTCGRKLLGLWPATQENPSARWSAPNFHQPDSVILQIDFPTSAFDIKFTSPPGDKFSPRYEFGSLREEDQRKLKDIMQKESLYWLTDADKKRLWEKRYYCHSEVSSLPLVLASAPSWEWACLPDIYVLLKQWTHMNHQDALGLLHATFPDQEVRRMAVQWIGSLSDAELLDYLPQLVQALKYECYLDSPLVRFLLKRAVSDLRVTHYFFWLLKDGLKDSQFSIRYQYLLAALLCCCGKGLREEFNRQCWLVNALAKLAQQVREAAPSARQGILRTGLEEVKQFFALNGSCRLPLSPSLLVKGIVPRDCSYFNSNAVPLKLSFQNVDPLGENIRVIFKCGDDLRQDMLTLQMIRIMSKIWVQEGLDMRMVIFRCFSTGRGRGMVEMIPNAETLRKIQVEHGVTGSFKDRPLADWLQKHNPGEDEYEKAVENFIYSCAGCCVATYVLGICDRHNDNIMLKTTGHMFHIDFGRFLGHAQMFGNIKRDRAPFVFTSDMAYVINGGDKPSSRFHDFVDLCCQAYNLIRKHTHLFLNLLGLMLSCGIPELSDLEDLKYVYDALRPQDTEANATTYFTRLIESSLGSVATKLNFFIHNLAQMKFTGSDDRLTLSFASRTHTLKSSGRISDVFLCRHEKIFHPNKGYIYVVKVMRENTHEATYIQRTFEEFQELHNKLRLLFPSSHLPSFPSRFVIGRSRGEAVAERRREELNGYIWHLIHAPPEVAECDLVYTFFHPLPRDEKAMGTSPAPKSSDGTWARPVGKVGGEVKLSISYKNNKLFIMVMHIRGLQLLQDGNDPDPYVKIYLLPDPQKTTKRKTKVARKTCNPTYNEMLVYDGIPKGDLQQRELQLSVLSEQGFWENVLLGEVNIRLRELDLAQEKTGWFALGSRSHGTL
Chain of Mitogen-activated protein kinase kinase kinase kinase 4 (Homo sapiens) (O95819 2-1239 limits assumed): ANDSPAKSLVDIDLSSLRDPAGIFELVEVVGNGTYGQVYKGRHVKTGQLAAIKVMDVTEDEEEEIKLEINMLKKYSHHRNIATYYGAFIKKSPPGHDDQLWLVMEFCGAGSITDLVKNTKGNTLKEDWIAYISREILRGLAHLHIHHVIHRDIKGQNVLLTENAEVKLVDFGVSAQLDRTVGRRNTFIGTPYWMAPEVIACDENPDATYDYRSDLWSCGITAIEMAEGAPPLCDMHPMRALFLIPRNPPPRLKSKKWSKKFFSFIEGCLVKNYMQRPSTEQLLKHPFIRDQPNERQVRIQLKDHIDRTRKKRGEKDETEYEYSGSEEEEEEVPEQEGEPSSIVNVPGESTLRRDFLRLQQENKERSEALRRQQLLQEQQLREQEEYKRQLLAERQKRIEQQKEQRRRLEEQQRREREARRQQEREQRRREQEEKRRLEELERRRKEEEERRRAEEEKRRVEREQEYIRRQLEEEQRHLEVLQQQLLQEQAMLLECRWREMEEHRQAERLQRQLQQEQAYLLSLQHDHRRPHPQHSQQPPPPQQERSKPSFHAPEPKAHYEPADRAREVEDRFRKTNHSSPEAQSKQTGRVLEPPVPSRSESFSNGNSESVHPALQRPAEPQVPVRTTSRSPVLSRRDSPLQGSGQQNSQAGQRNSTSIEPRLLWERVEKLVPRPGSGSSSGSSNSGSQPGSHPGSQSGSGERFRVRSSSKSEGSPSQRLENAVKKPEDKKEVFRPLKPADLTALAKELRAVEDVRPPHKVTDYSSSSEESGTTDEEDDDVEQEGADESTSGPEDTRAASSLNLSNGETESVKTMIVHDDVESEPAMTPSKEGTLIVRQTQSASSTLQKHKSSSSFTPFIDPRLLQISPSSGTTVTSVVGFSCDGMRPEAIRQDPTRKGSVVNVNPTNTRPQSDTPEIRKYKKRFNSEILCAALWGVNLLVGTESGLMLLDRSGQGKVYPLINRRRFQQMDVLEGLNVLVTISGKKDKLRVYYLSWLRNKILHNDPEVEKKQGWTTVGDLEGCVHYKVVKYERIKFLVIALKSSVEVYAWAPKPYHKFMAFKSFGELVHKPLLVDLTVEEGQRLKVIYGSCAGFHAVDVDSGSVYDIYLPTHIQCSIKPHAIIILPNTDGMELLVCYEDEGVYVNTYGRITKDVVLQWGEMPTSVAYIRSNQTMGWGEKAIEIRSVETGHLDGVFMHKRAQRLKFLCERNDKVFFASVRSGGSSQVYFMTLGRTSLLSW
Chain of Cyclin-dependent kinase 3 (Homo sapiens) (Q00526 whole entry, looked up): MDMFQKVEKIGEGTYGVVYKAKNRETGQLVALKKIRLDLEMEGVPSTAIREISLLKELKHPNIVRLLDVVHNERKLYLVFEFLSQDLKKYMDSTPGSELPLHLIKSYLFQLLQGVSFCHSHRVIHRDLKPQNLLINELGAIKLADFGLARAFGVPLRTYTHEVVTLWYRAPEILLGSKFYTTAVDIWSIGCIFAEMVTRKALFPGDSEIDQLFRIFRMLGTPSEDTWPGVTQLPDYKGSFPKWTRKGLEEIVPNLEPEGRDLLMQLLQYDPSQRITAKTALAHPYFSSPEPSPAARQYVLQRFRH

**Q.** Which results are given for `COc1cc2ncnc(N[C@H](C)c3cccc4ccccc34)c2cc1OC`?
**A.** Activity [1]: 64%; Activity [2]: 95%; Activity [3]: 90%; Activity [4]: 65%; Activity [5]: 81%; Activity [6]: 78%; Activity [7]: 23%; Activity [8]: 93%; Activity [9]: 87%
